Results taken from ChEMBL document CHEMBL1201862, “PubChem BioAssay data set” (2004).
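48-hour exposure; five concentrations; linearly interpolated endpoints. GI50 = concentration required for 50% inhibition of growth.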 Activity calls are given as the source filed them. No stated cut-off is given here; in the data, active = GI50 up to about 1.1 µM and inactive = higher.

What was measured:
Assay in all cases: NCI tumour cell line growth inhibition, 48 h
SN12C = test system: SN12C
T47D = test system: T47D
SF-268 = test system: SF-268
Malme-3M = test system: Malme-3M
RXF 393 = test system: RXF 393
U-251 = test system: U-251
KM12 = test system: KM12
MDA-MB-231 = test system: MDA-MB-231
HOP-62 = test system: HOP-62
OVCAR-4 = test system: OVCAR-4
SF-295 = test system: SF-295
UACC-257 = test system: UACC-257
SNB-19 = test system: SNB-19
NCI-H460 = test system: NCI-H460
RPMI-8226 = test system: RPMI-8226
HT-29 = test system: HT-29
M14 = test system: M14
SK-MEL-2 = test system: SK-MEL-2
SW-620 = test system: SW-620
ACHN = test system: ACHN

Row | Compound | GI50 (SN12C) | GI50 (T47D) | GI50 (SF-268) | GI50 (Malme-3M) | GI50 (RXF 393) | GI50 (U-251) | GI50 (KM12) | GI50 (MDA-MB-231) | GI50 (HOP-62) | GI50 (OVCAR-4) | GI50 (SF-295) | GI50 (UACC-257) | GI50 (SNB-19) | GI50 (NCI-H460) | GI50 (RPMI-8226) | GI50 (HT-29) | GI50 (M14) | GI50 (SK-MEL-2) | GI50 (SW-620) | GI50 (ACHN)
1 | CN(C)CCNC(=O)c1ccc(NCCCN(C)CCCNc2ccc(C(=O)NCCN(C)C)c3nc4ccc([N+](=O)[O-])cc4c(O)c23)c2c(O)c3cc([N+](=O)[O-])ccc3nc12 | < 0.01 µM (active) | 0.32 µM (active) | 0.065 µM (active) | 0.126 µM (active) | 0.101 µM (active) | < 0.01 µM (active) | 0.04 µM (active) | 0.05 µM (active) | 0.154 µM (active) | 0.127 µM (active) | 0.0495 µM (active) | 0.385 µM (active) | < 0.0146 µM (active) | < 0.01 µM (active) | < 0.01 µM (active) | < 0.0182 µM (active) | 0.5 µM (active) | 0.0111 µM (active) | < 0.01 µM (active) | < 0.0121 µM (active)
2 | COC(=O)C12OCC34C(CC5C(C)=C(O)C(=O)CC5(C)C3C(O)C1O)OC(=O)C(OC(=O)C=C(C)C)C24 (stereo not given) | > 500 µM (inactive) | 0.0132 µM (active) | > 500 µM (inactive) | 228 µM (inactive) | 303 µM (inactive) | 316 µM (inactive) | 411 µM (inactive) | 0.0234 µM (active) | > 500 µM (inactive) | < 0.215 µM (active) | > 500 µM (inactive) | 423 µM (inactive) | 368 µM (inactive) | 161 µM (inactive) | 361 µM (inactive) | > 500 µM (inactive) | < 0.215 µM (active) | > 500 µM (inactive) | > 500 µM (inactive) | 0.247 µM (active)
3 | Clc1ccccc1-c1nc2cc(C34CC5CC(CC(C5)C3)C4)ccc2[nH]1 | 24.3 µM (inactive) | 10.9 µM (inactive) | 41.1 µM (inactive) | 25.5 µM (inactive) | 5.4 µM (inactive) | 7.98 µM (inactive) | 53.2 µM (inactive) | 15 µM (inactive) | 14.3 µM (inactive) | 21.5 µM (inactive) | 13.6 µM (inactive) | 59.7 µM (inactive) | 10 µM (inactive) | 30.3 µM (inactive) | 34.2 µM (inactive) | 11.4 µM (inactive) | 19.8 µM (inactive) | 15 µM (inactive) | 46 µM (inactive) | 11.6 µM (inactive)
4 | C[C@@H]1CC[C@@H]2[C@@H](C1)O[C@@H]([C@@H](C)OCc1ccccc1)SC2(C)C | 17.2 µM (inactive) | 14.7 µM (inactive) | 23 µM (inactive) | 17.2 µM (inactive) | 15.4 µM (inactive) | 17.5 µM (inactive) | 18.7 µM (inactive) | 21.5 µM (inactive) | 16.4 µM (inactive) | 20.1 µM (inactive) | 16.6 µM (inactive) | 19.4 µM (inactive) | 19 µM (inactive) | 20.9 µM (inactive) | 16.5 µM (inactive) | 18.8 µM (inactive) | 19.3 µM (inactive) | 15.8 µM (inactive) | 18.4 µM (inactive) | 17.3 µM (inactive)
5 | Cc1ccc(S(=O)(=O)NC(=O)NCC(=O)O)cc1 | > 100 µM (inactive) | > 100 µM (inactive) | > 100 µM (inactive) | > 100 µM (inactive) | > 100 µM (inactive) | > 100 µM (inactive) | > 100 µM (inactive) | > 100 µM (inactive) | > 100 µM (inactive) | > 100 µM (inactive) | > 100 µM (inactive) | > 100 µM (inactive) | > 100 µM (inactive) | > 100 µM (inactive) | > 100 µM (inactive) | > 100 µM (inactive) | > 100 µM (inactive) | > 100 µM (inactive) | > 100 µM (inactive) | > 100 µM (inactive)
6 | COC(=O)[C@@H]1Cc2cc(O)c(O)cc2C2(CCN(C)CC2)O1 | > 10 µM (inactive) | > 10 µM (inactive) | > 10 µM (inactive) | > 10 µM (inactive) | > 10 µM (inactive) | > 10 µM (inactive) | > 10 µM (inactive) | > 10 µM (inactive) | > 10 µM (inactive) | > 10 µM (inactive) | > 10 µM (inactive) | > 10 µM (inactive) | > 10 µM (inactive) | > 10 µM (inactive) | > 10 µM (inactive) | > 10 µM (inactive) | > 10 µM (inactive) | > 10 µM (inactive) | > 10 µM (inactive) | > 10 µM (inactive)
7 | Cc1ccc(/N=N/C(=N/NC(=O)c2cc(Cl)ccc2C(=O)c2ccccc2)c2ccc(N(CCC#N)CCC#N)cc2C)cc1 | 9.75 µM (inactive) | 3.81 µM (inactive) | 10.8 µM (inactive) | 15.7 µM (inactive) | 0.0957 µM (active) | 8.02 µM (inactive) | 10.9 µM (inactive) | 4.06 µM (inactive) | 15.6 µM (inactive) | 10.4 µM (inactive) | 14.9 µM (inactive) | 15.9 µM (inactive) | 33.2 µM (inactive) | 2.41 µM (inactive) | 10.2 µM (inactive) | 16.9 µM (inactive) | 11.8 µM (inactive) | 1.34 µM (inactive) | 21.2 µM (inactive) | 22 µM (inactive)
8 | CCOc1cccc(/C=N\c2ccccc2SSc2ccccc2/N=C\c2cccc(OCC)c2O)c1O | 9.79 µM (inactive) | 1.26 µM (inactive) | 4.22 µM (inactive) | 10.2 µM (inactive) | 7.46 µM (inactive) | 3.64 µM (inactive) | 6.82 µM (inactive) | 8.95 µM (inactive) | 6.92 µM (inactive) | 4 µM (inactive) | 12.6 µM (inactive) | 5.77 µM (inactive) | 11.2 µM (inactive) | 5.48 µM (inactive) | 3.73 µM (inactive) | 14.6 µM (inactive) | 4.06 µM (inactive) | 16.5 µM (inactive) | 8.49 µM (inactive) | 13.5 µM (inactive)
9 | CCN(CC)CCNC(=O)c1cc2cc(NC(=O)c3cc4cc(NC(=O)c5cc6cc([N+](=O)[O-])ccc6[nH]5)ccc4[nH]3)ccc2[nH]1 | > 100 µM (inactive) | > 100 µM (inactive) | > 100 µM (inactive) | > 100 µM (inactive) | > 100 µM (inactive) | > 100 µM (inactive) | > 100 µM (inactive) | > 100 µM (inactive) | > 100 µM (inactive) | > 100 µM (inactive) | > 100 µM (inactive) | > 100 µM (inactive) | > 100 µM (inactive) | > 100 µM (inactive) | < 0.01 µM (active) | > 100 µM (inactive) | > 100 µM (inactive) | > 100 µM (inactive) | > 100 µM (inactive) | > 100 µM (inactive)
10 | Fc1ccc(C(OCCN2CCN(CCCCl)CC2)c2ccc(F)cc2)cc1 | 25.3 µM (inactive) | 22.3 µM (inactive) | 24.5 µM (inactive) | 17 µM (inactive) | 23.7 µM (inactive) | 41 µM (inactive) | 18.3 µM (inactive) | 26.5 µM (inactive) | 33 µM (inactive) | 24.9 µM (inactive) | 22.9 µM (inactive) | 21 µM (inactive) | 37.6 µM (inactive) | 21.8 µM (inactive) | 20.8 µM (inactive) | 17 µM (inactive) | 18.9 µM (inactive) | 24.2 µM (inactive) | 32.2 µM (inactive) | 46 µM (inactive)
11 | Cc1c(Cl)ccc2c1NC(=O)C2(O)CC(=O)c1ccc(Cl)cc1Cl (stereo not given) | > 50 µM (inactive) | > 50 µM (inactive) | > 50 µM (inactive) | > 47.9 µM (inactive) | 20.1 µM (inactive) | 22.6 µM (inactive) | > 50 µM (inactive) | 30.5 µM (inactive) | 19.2 µM (inactive) | > 50 µM (inactive) | > 50 µM (inactive) | > 50 µM (inactive) | > 50 µM (inactive) | > 50 µM (inactive) | > 41 µM (inactive) | > 50 µM (inactive) | > 50 µM (inactive) | > 50 µM (inactive) | > 50 µM (inactive) | 36.7 µM (inactive)
12 | Nc1nc(-c2ccccc2/N=N/N2CCCC2)nc2ccccc12 | 1.59 µM (inactive) | 2.4 µM (inactive) | 6.7 µM (inactive) | 3.28 µM (inactive) | 5.73 µM (inactive) | 2.67 µM (inactive) | 2.13 µM (inactive) | 1.58 µM (inactive) | 1.73 µM (inactive) | 5.96 µM (inactive) | 2.32 µM (inactive) | 3.51 µM (inactive) | 3.69 µM (inactive) | 2.92 µM (inactive) | 2 µM (inactive) | 2.38 µM (inactive) | 3.08 µM (inactive) | 13.2 µM (inactive) | 1.74 µM (inactive) | 2.52 µM (inactive)
13 | CN(C)c1ccc(/C=C(\NC(=O)c2ccccc2)C2NC(Cc3c[nH]c4ccccc34)C(=O)O2)cc1 (stereo not given) | > 28.5 µM (inactive) | > 54 µM (inactive) | 11.6 µM (inactive) | 21.4 µM (inactive) | > 91 µM (inactive) | 4.49 µM (inactive) | 6.71 µM (inactive) | > 50.4 µM (inactive) | 41.2 µM (inactive) | 12.3 µM (inactive) | 36.1 µM (inactive) | 40.6 µM (inactive) | 12 µM (inactive) | 3.19 µM (inactive) | 6.71 µM (inactive) | 3.25 µM (inactive) | 42.2 µM (inactive) | 27.3 µM (inactive) | 9.42 µM (inactive) | 8.85 µM (inactive)
